In US4405625A, “Method of treating hyperglycemia with 1,3-dioxo-1H-benz[de]isoquinoline-2(3H)-acetic acid” (Ayerst, McKenna and Harrison Limited, priority 1979, dated 1983):

How the values were obtained:
[1] = test system: plasma insulin; assay: Arginine-induced insulin release in intact rats; format: in vivo, rat (male Sprague-Dawley)
Protocol: (§1) After light deithyl ether anaesthetization, the animals were injected with a bolus of saline or alrestatin (sodium salt form in 0.3 ml saline/100 g of body weight) in the external jugular vein followed immediately with a bolus of arginine-HCl (British Drug House ) at a dose of 100 mg/100 g of body weight, cf. […] Vehicle control animals received a second injection of saline. Five minutes later trunk blood was collected by decapitation into chilled tubes containing sodium heparin (Upjohn) and aprotinin(Trasylol™, Boehringer-Ingelheim Dorval, Quebec, Canada) (20 U and 1000 KIU per ml whole blood, respectively). Plasma was collected after centrifugation, stored at -20° C. and assayed for immunoreactive glucagon and insulin levels within 2 weeks.
(§2) Rat insulin purchased from Novo A/S, Copenhagen, Denmark, was used as unlabelled standard. […] Glucagon antiserum (Antiserum 30K, purchased from Dr. R. H. Unger, Houston, Tex., U.S.A.) was employed in the assay. […] Metab. […] Metab. […] Antibody bound hormone was separated from free hormone by conventional charcoal-dextran methods.

[2] = test system: plasma glucagon; assay: Arginine-induced glucagon release in intact rats; format: in vivo, rat (male Sprague-Dawley)
Protocol: as §1, §2

[3] = test system: blood glucose; assay: Clinical tests in diabetic patients: blood glucose levels; format: in vivo, human (diabetic patients)
Source text: All patients were on a controlled diet. Patient A also was receiving the oral antidiabetic agent, glyburide (Daonil™) and patient C also was receiving the diuretic chlorthalidone (Hygroton™).

[4] = test system: plasma glucose; assay: Intravenous glucose tolerance test in anaesthetized fasted non-diabetic male intact rats: plasma glucose; format: in vivo, rat (male Sprague Dawley); conditions: 0.75 mmol/kg i.v., mean±S.E.M.
Protocol: (§3) A description of this experiment is as follows.
(§4) Male Sprague Dawley rats (200-250 g, Canadian Breeding Laboratories, St. Constant, Quebec, Canada) were used in the experiment. There were 11 animals in the group. The animals were kept in a room with constant light-dark cycle and temperature. They were allowed food (Purina Lab Chow™) and water ad libitum for at least three days before being utilized. The animals were then fasted for 24 hours and anaesthetized with nembutal (50 mg/kg, intraperitoneally; Abbott Laboratories, Montreal, Quebec, Canada.) The jugular veins were exposed and a fasting blood sample was drawn by the transmusculature puncture method, Y. Kato, J. Dupre and J. C. Beck, Endocrinology, 93, 135 (1973), employing a sodium heparin (The Upjohn Company, Don Mills, Ontario, Canada) washed syringe. Alrestatin sodium at a dose of 0.75 mmol/kg was administered as a bolus in the jugular vein followed immediately by a bolus of D-glucose (300 mg/kg; British Drug House, Montreal, Quebec, Canada). Control animals received an injection of sodium chloride (0.75 mmol/kg) instead of the alrestatin sodium. Blood samples were drawn at 5, 10 and 15 minutes after injection of the glucose. The wounds then were closed with autoclips (Clay Adams Co., Parsippany, N. J., U.S.A.) and the animals were allowed food and water for another three day period before the experiment was repeated, i.e., on day 4. […]
(§5) Plasma insulin was measured by radioimmunoassay using a charcoal separation method, V. Herbert et al, J. Clin. Endocrinol., 25, 1375 (1965). […] Plasma glucose was measured by a glucose oxidase method employing a Beckman Glucose Analyser, see Beckman Company Manual, Palo Alto, Calif., U.S.A.
(§6) The results, noted below, are expressed as mean± S.E.M. The statistical significance of changes in the concentration of plasma glucose (mg/100 ml) and insulin (μU/ml), in response to alrestatin or the vehicle, from basal fasting values was determined on the differences between group means by the Student's […]. […]

[5] = test system: plasma insulin; assay: Intravenous glucose tolerance test in anaesthetized fasted non-diabetic male intact rats: plasma insulin; format: in vivo, rat (male Sprague Dawley); conditions: 0.75 mmol/kg i.v.
Protocol: as §3, §4, §5, §6

[6] = test system: plasma glucose; assay: Acute administration without glucose bolus in fasted rats: plasma glucose; format: in vivo, rat (male Sprague Dawley); conditions: acute i.v. administration
Protocol: (§7) Male Sprague Dawley rats (200-250 g, Canadian Breeding Laboratories, St. Constant, Quebec, Canada) were used in the experiment. There were 11 animals in the group. The animals were kept in a room with constant light-dark cycle and temperature. They were allowed food (Purina Lab Chow™) and water ad libitum for at least three days before being utilized. The animals were then fasted for 24 hours and anaesthetized with nembutal (50 mg/kg, intraperitoneally; Abbott Laboratories, Montreal, Quebec, Canada.) The jugular veins were exposed and a fasting blood sample was drawn by the transmusculature puncture method, Y. Kato, J. Dupre and J. C. Beck, Endocrinology, 93, 135 (1973), employing a sodium heparin (The Upjohn Company, Don Mills, Ontario, Canada) washed syringe. […]
as §5, §6

[7] = test system: aldose reductase; conditions: previously reported; cited from earlier work
[8] = test system: plasma insulin; assay: Acute administration without glucose bolus in fasted rats: plasma insulin; format: in vivo, rat (male Sprague Dawley); conditions: acute i.v. administration
Protocol: as §7, §5, §6

[9] = LD50 in rats; conditions: rat, in vivo
Source text: Therefore, a good therapeutic index of safety is present.

[10] = arginine 100 mg/100 g i.v., 5 min
[11] = 200 mg/kg i.v. immediately before arginine 100 mg/100 g
[12] = 35-200 mg/kg i.v. immediately before arginine 100 mg/100 g

N=C(N)NCCC[C@H](N)C(=O)O [arginine, reference compound]
increase of plasma insulin concentration [1, 10]: about 100 μU/ml
stimulated glucagon release, mean above plasma hormone concentration in vehicle treated animals [2, 10]: about 100 pg/ml
plasma glucagon concentration ([2]; arginine 100 mg/100 g i.v., 5 min, vehicles 180.6±5.8 pg/ml): 284.8 ± 13.7 pg/mL

O=C(O)CN1C(=O)c2cccc3cccc(c23)C1=O [alrestatin sodium]
lowering of blood sugar levels ([3]; 50 mg/kg/day i.v. for five days, diabetic patients): effective in lowering blood sugar levels
blood glucose, fasting ([3]; Patient A (also on glyburide), day 1, 50 mg/kg/day i.v., pretreatment 162): 132 mg %
blood glucose, 2hr postprandial ([3]; Patient A (also on glyburide), day 1, 50 mg/kg/day i.v., pretreatment 276): 185 mg %
blood glucose, fasting ([3]; Patient A (also on glyburide), day 2, 50 mg/kg/day i.v., pretreatment 162): 130 mg %
blood glucose, 2hr postprandial ([3]; Patient A (also on glyburide), day 2, 50 mg/kg/day i.v., pretreatment 276): 215 mg %
blood glucose, fasting ([3]; Patient A (also on glyburide), day 3, 50 mg/kg/day i.v., pretreatment 162): 97 mg %
blood glucose, 2hr postprandial ([3]; Patient A (also on glyburide), day 3, 50 mg/kg/day i.v., pretreatment 276): 155 mg %
blood glucose, fasting ([3]; Patient A (also on glyburide), day 4, 50 mg/kg/day i.v., pretreatment 162): 90 mg %
blood glucose, 2hr postprandial ([3]; Patient A (also on glyburide), day 4, 50 mg/kg/day i.v., pretreatment 276): 117 mg %
blood glucose, fasting ([3]; Patient A (also on glyburide), day 5, 50 mg/kg/day i.v., pretreatment 162): 132 mg %
blood glucose, 2hr postprandial ([3]; Patient A (also on glyburide), day 5, 50 mg/kg/day i.v., pretreatment 276): 230 mg %
blood glucose, fasting ([3]; Patient A (also on glyburide), follow-up after 5 days i.v. treatment, pretreatment 162): 111 mg %
blood glucose, 2hr postprandial ([3]; Patient A (also on glyburide), follow-up after 5 days i.v. treatment, pretreatment 276): 207 mg %
blood glucose, fasting ([3]; Patient B, day 1, 50 mg/kg/day i.v., pretreatment 90): 92 mg %
blood glucose, 2hr postprandial ([3]; Patient B, day 1, 50 mg/kg/day i.v., pretreatment 119): 72 mg %
blood glucose, fasting ([3]; Patient B, day 2, 50 mg/kg/day i.v., pretreatment 90): 89 mg %
blood glucose, 2hr postprandial ([3]; Patient B, day 2, 50 mg/kg/day i.v., pretreatment 119): 86 mg %
blood glucose, fasting ([3]; Patient B, day 3, 50 mg/kg/day i.v., pretreatment 90): 86 mg %
blood glucose, 2hr postprandial ([3]; Patient B, day 3, 50 mg/kg/day i.v., pretreatment 119): 94 mg %
blood glucose, fasting ([3]; Patient B, day 4, 50 mg/kg/day i.v., pretreatment 90): 50 mg %
blood glucose, 2hr postprandial ([3]; Patient B, day 4, 50 mg/kg/day i.v., pretreatment 119): 60 mg %
blood glucose, fasting ([3]; Patient B, day 5, 50 mg/kg/day i.v., pretreatment 90): 50 mg %
blood glucose, 2hr postprandial ([3]; Patient B, day 5, 50 mg/kg/day i.v., pretreatment 119): 43 mg %
blood glucose, fasting ([3]; Patient B, follow-up after 5 days i.v. treatment, pretreatment 90): 81 mg %
blood glucose, 2hr postprandial ([3]; Patient B, follow-up after 5 days i.v. treatment, pretreatment 119): 87 mg %
blood glucose, fasting ([3]; Patient C (also on chlorthalidone), day 1, 50 mg/kg/day i.v., pretreatment 95): 133 mg %
blood glucose, 2hr postprandial ([3]; Patient C (also on chlorthalidone), day 1, 50 mg/kg/day i.v., pretreatment 190): 128 mg %
blood glucose, fasting ([3]; Patient C (also on chlorthalidone), day 2, 50 mg/kg/day i.v., pretreatment 95): 111 mg %
blood glucose, 2hr postprandial ([3]; Patient C (also on chlorthalidone), day 2, 50 mg/kg/day i.v., pretreatment 190): 145 mg %
blood glucose, fasting ([3]; Patient C (also on chlorthalidone), day 3, 50 mg/kg/day i.v., pretreatment 95): 104 mg %
blood glucose, 2hr postprandial ([3]; Patient C (also on chlorthalidone), day 3, 50 mg/kg/day i.v., pretreatment 190): 141 mg %
blood glucose, fasting ([3]; Patient C (also on chlorthalidone), day 4, 50 mg/kg/day i.v., pretreatment 95): 50 mg %
blood glucose, 2hr postprandial ([3]; Patient C (also on chlorthalidone), day 4, 50 mg/kg/day i.v., pretreatment 190): 90 mg %
blood glucose, fasting ([3]; Patient C (also on chlorthalidone), day 5, 50 mg/kg/day i.v., pretreatment 95): 77 mg %
blood glucose, 2hr postprandial ([3]; Patient C (also on chlorthalidone), day 5, 50 mg/kg/day i.v., pretreatment 190): 106 mg %
blood glucose, fasting ([3]; Patient C (also on chlorthalidone), follow-up after 5 days i.v. treatment, pretreatment 95): 119 mg %
blood glucose, 2hr postprandial ([3]; Patient C (also on chlorthalidone), follow-up after 5 days i.v. treatment, pretreatment 190): 149 mg %
mean incremental change of plasma glucose ([4]; 5 min after i.v. glucose (300 mg/kg), vehicle 96±4.7, NS): 83.3±5.4 mg %
mean incremental change of plasma glucose ([4]; 10 min after i.v. glucose (300 mg/kg), vehicle 82.8±7.5, p<0.05): 58.8±8.5 mg %
mean incremental change of plasma glucose ([4]; 15 min after i.v. glucose (300 mg/kg), vehicle 78.4±10.7, p<0.05): 45.4±9.6 mg %
increase of arginine-induced insulin release [1, 11]: about 2.5 fold
effect on arginine-induced insulin release [1, 12]: increased the insulin release observed with arginine
effect on arginine-stimulated glucagon increase [2, 11]: completely prevented the increase caused by arginine
effect on arginine-stimulated glucagon concentrations [2, 12]: decreased the glucagon concentrations
mean incremental change of plasma insulin ([5]; 5 min after i.v. glucose (300 mg/kg), mean±S.E.M., vehicle 32.9±5.2, p<0.02): 76.9±16.7 μU/ml
plasma insulin levels vs vehicle ([5]; 10 min after i.v. glucose (300 mg/kg)): significantly greater
plasma insulin levels vs vehicle ([5]; 15 min after i.v. glucose (300 mg/kg)): greater at 15 minutes in the alrestatin treated group although the difference was not significant

O=C(O)CN1C(=O)c2cccc3cccc(c23)C1=O [alrestatin, 1,3-dioxo-1H-benz[de]isoquinoline-2(3H)-acetic acid]
change in plasma glucose levels vs vehicle [6]: did not significantly alter
inhibition of the enzyme aldose reductase [7]: inhibitor of the enzyme aldose reductase
change in basal fasting plasma insulin levels vs vehicle [8]: did not significantly alter
LD50 ([9]; iv, intravenously): 1220 ± 45 mg/kg
LD50 ([9]; po, perorally): > 2500 mg/kg
